Common to all, as to format: biochemical
One test has as its target T1, procaspase-3 (Homo sapiens, UniProt P42574).
T1 construct: His6 (C); made in house; host or cells: E. coli BL21(DE3)RP, pET-23b
T1 sequence (P42574 1-277): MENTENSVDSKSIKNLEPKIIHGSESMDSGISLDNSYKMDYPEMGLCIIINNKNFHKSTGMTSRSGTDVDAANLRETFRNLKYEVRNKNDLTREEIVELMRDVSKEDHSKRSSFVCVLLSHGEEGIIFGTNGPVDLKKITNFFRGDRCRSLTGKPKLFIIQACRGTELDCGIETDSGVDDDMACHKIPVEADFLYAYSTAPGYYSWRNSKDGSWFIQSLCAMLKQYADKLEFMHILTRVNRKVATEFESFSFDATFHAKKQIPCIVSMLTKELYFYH
The experiment in a line: Executioner procaspase-3 activation assay (Ac-DEVD-AFC fluorogenic substrate). The conditions noted are these: incubation with compound for 5 h at 37° C.; 100 nM procaspase; read-out: Procaspase Activation 3. Summed up: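 Procaspase-3 at 100 nM was incubated with activating compounds (100 nM to 100 uM) in 50 mM HEPES pH 7.4, 50 mM KCl, 1 mM DTT and 0.01% Triton-X100, the detergent limiting aggregation artefacts. Protein, substrate and inhibitor were kept as frozen aliquots and thawed just before use.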

A further test has as its target T2, procaspase-6 (Homo sapiens, UniProt P55212).
T2 sequence (P55212 1-293): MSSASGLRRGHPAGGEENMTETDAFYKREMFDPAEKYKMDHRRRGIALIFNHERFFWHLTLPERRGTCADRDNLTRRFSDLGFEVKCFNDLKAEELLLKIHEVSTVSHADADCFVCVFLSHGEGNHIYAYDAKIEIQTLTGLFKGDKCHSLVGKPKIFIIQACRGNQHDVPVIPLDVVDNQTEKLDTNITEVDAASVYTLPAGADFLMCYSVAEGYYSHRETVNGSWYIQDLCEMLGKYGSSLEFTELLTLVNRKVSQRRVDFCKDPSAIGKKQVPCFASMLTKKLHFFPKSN
Description: Executioner procaspase-6 activation assay (Ac-VEID-AFC fluorogenic substrate). The conditions noted are these: incubation with compound for 5 h at 37° C.; 100 nM procaspase. Summed up:
(§1)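 Procaspase at 100 nM incubated with compound (100 nM–100 μM) in 50 mM HEPES pH 7.4, KCl, DTT, 0.01% Triton X-100, 3% DMSO, 37 °C for 5 h; then 25 μM Ac-DEVD-AFC (procaspase-7) or Ac-VEID-AFC (procaspase-6), kinetic fluorescence 30 min (ex 365/em 495); EC50 reported.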

A further test deals with T3, procaspase-7 (Homo sapiens, UniProt P55210).
T3 construct: His6 (C); made in house; host or cells: E. coli BL21(DE3)RP, pET-21b
T3 sequence (P55210 1-303): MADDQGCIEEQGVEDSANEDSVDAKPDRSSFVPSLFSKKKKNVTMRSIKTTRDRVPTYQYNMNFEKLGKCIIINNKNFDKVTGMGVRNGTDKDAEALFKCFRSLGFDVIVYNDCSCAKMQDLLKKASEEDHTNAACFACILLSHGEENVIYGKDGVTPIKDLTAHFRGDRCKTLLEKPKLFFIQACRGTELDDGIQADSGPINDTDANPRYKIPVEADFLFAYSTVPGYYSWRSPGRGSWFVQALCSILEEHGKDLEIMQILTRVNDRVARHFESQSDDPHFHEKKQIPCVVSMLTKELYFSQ
Description: Executioner procaspase-7 activation assay (Ac-DEVD-AFC fluorogenic substrate). The conditions noted are these: incubation with compound for 5 h at 37° C.; 100 nM procaspase. Put shortly:
as §1

On to `CC(=O)Nc1ccccc1-c1cccc(NC(=O)c2cc3cccc(OC(F)(F)F)c3oc2=O)c1` [compound 97, 8-Trifluoromethoxy-2-oxo-2H-chromene-3-carboxylic acid (2′-acetylamino-biphenyl-3-yl)-amide], for which the EC50 at procaspase-3, at procaspase-6 and at procaspase-7 was above 100 µM in each case.

`O=C(Nc1cccc(-c2ccccc2S(=O)(=O)N2CCOCC2)c1)c1cc2cccc(O)c2oc1=O` [compound 98, 8-Hydroxy-2-oxo-2H-chromene-3-carboxylic acid (2′-(Morpholine-4-sulfonyl)-biphenyl-3-yl)-amide]: the EC50 at procaspase-3 is 10 to 50 µM; at procaspase-6, above 100 µM; on procaspase-7 it was 10 to 50 µM.

Turning to `COc1cccc2cc(C(=O)Nc3cccc(-c4ccccc4S(=O)(=O)N4CCOCC4)c3)c(=O)oc12` [compound 99, 8-Methoxy-2-oxo-2H-chromene-3-carboxylic acid (2′-(Morpholine-4-sulfonyl)-biphenyl-3-yl)-amide], the EC50 on procaspase-3, at procaspase-6 and at procaspase-7 was above 100 µM throughout.

On to `O=C(Nc1cccc(-c2ccccc2S(=O)(=O)N2CCOCC2)c1)c1cc2cccc(OC(F)(F)F)c2oc1=O` [compound 100, 8-Trifluoromethoxy-2-oxo-2H-chromene-3-carboxylic acid (2′-(Morpholine-4-sulfonyl)-biphenyl-3-yl)-amide], for which the EC50 on procaspase-3, at procaspase-6 and at procaspase-7 was above 100 µM in each case.

With `COc1ncc(-c2cccc(NC(=O)c3cc4cccc(O)c4oc3=O)c2)c(OC)n1` [compound 127, 8-Hydroxy-2-oxo-2H-chromene-3-carboxylic acid [3-(2,4-dimethoxy-pyrimidin-5-yl)-phenyl]-amide], the EC50 at procaspase-3, at procaspase-6 and on procaspase-7 was above 100 µM in each case.

As for `COc1ncc(-c2cccc(NC(=O)c3cc4cccc(OC)c4oc3=O)c2)c(OC)n1` [compound 128, 8-Methoxy-2-oxo-2H-chromene-3-carboxylic acid [3-(2,4-dimethoxy-pyrimidin-5-yl)-phenyl]-amide], the EC50 at procaspase-3, at procaspase-6 and at procaspase-7 was above 100 µM each time.

With `COc1ccc(-c2cccc(NC(=O)c3cc4cccc(O)c4oc3=O)c2)cn1` [compound 129, 8-Hydroxy-2-oxo-2H-chromene-3-carboxylic acid [3-(6-methoxy-pyridin-3-yl)-phenyl]-amide], the EC50 on procaspase-3, at procaspase-6 and on procaspase-7 was above 100 µM throughout.

On to `COc1ccc(-c2cccc(NC(=O)c3cc4cccc(OC)c4oc3=O)c2)cn1` [compound 130, 8-Methoxy-2-oxo-2H-chromene-3-carboxylic acid [3-(6-methoxy-pyridin-3-yl)-phenyl]-amide], for which the EC50 at procaspase-3, on procaspase-6 and at procaspase-7 was above 100 µM in each case.

As to `COc1cncc(-c2cccc(NC(=O)c3cc4cccc(O)c4oc3=O)c2)c1` [compound 131, 8-Hydroxy-2-oxo-2H-chromene-3-carboxylic acid [3-(5-methoxy-pyridin-3-yl)-phenyl]-amide], the EC50 at procaspase-3, at procaspase-6 and on procaspase-7 was above 100 µM throughout.

As for `COc1cncc(-c2cccc(NC(=O)c3cc4cccc(OC)c4oc3=O)c2)c1` [compound 132, 8-Methoxy-2-oxo-2H-chromene-3-carboxylic acid [3-(5-methoxy-pyridin-3-yl)-phenyl]-amide], the EC50 at procaspase-3, at procaspase-6 and at procaspase-7 was above 100 µM each time.

As to `COc1ncc(-c2cccc(NC(=O)c3cc4cccc(O)c4oc3=O)c2)cn1` [compound 133, 8-Hydroxy-2-oxo-2H-chromene-3-carboxylic acid [3-(2-methoxy-pyrimidin-5-yl)-phenyl]-amide], the EC50 at procaspase-3, at procaspase-6 and on procaspase-7 was above 100 µM throughout.

Take `COc1ncc(-c2cccc(NC(=O)c3cc4cccc(OC)c4oc3=O)c2)cn1` [compound 134, 8-Methoxy-2-oxo-2H-chromene-3-carboxylic acid [3-(2-methoxy-pyrimidin-5-yl)-phenyl]-amide]: the EC50 at procaspase-3, on procaspase-6 and on procaspase-7 was above 100 µM in each case.

Regarding `O=C(Nc1cccc(-c2cncnc2)c1)c1cc2cccc(O)c2oc1=O` [compound 135, 8-Hydroxy-2-oxo-2H-chromene-3-carboxylic acid (3-pyrimidin-5-yl-phenyl)-amide], the EC50 on procaspase-3, on procaspase-6 and on procaspase-7 was above 100 µM in each case.

Turning to `COc1cccc2cc(C(=O)Nc3cccc(-c4cncnc4)c3)c(=O)oc12` [compound 136, 8-Methoxy-2-oxo-2H-chromene-3-carboxylic acid (3-pyrimidin-5-yl-phenyl)-amide], the EC50 at procaspase-3 is 50 to 200 µM; at procaspase-6, 50 to 200 µM; on procaspase-7 it was above 100 µM.

On to `CN(C)c1ccc(-c2cccc(NC(=O)c3cc4cccc(O)c4oc3=O)c2)cn1` [compound 137, 8-Hydroxy-2-oxo-2H-chromene-3-carboxylic acid [3-(6-dimethylamino-pyridin-3-yl)-phenyl]-amide], for which the EC50 on procaspase-3, on procaspase-6 and on procaspase-7 was above 100 µM in each case.

For `COc1cccc2cc(C(=O)Nc3cccc(-c4ccc(N(C)C)nc4)c3)c(=O)oc12` [compound 138, 8-Methoxy-2-oxo-2H-chromene-3-carboxylic acid [3-(6-dimethylamino-pyridin-3-yl)-phenyl]-amide], the EC50 on procaspase-3, at procaspase-6 and at procaspase-7 was above 100 µM throughout.

As for `O=C(Nc1cccc(-c2ccc(O)nc2)c1)c1cc2cccc(O)c2oc1=O` [compound 139, 8-Hydroxy-2-oxo-2H-chromene-3-carboxylic acid [3-(6-hydroxy-pyridin-3-yl)-phenyl]-amide], the EC50 at procaspase-3, on procaspase-6 and at procaspase-7 was above 100 µM in each case.

Regarding `COc1cccc2cc(C(=O)Nc3cccc(-c4ccc(O)nc4)c3)c(=O)oc12` [compound 140, 8-Methoxy-2-oxo-2H-chromene-3-carboxylic acid [3-(6-hydroxy-pyridin-3-yl)-phenyl]-amide], the EC50 at procaspase-3, on procaspase-6 and at procaspase-7 was above 100 µM in each case.

For `COc1ncccc1-c1cccc(NC(=O)c2cc3cccc(O)c3oc2=O)c1` [compound 141, 8-Hydroxy-2-oxo-2H-chromene-3-carboxylic acid [3-(2-methoxy-pyridin-3-yl)-phenyl]-amide], the EC50 on procaspase-3 was above 100 µM; on procaspase-6, above 100 µM; on procaspase-7, 10 to 50 µM.

In the case of `COc1ncccc1-c1cccc(NC(=O)c2cc3cccc(OC)c3oc2=O)c1` [compound 142, 8-Methoxy-2-oxo-2H-chromene-3-carboxylic acid [3-(2-methoxy-pyridin-3-yl)-phenyl]-amide], the EC50 at procaspase-3, on procaspase-6 and at procaspase-7 was above 100 µM throughout.

`N#Cc1ccc(-c2cccc(NC(=O)c3cc4cccc(O)c4oc3=O)c2)cc1F` [compound 143, 8-Hydroxy-2-oxo-2H-chromene-3-carboxylic acid (4′-cyano-3′-fluoro-biphenyl-3-yl)-amide]: the EC50 at procaspase-3, at procaspase-6 and on procaspase-7 was above 100 µM throughout.

The values are drawn from patent US8642788B2, “Activators of executioner procaspases 3, 6 and 7” (The Regents of the University of California, priority 2008, dated 2014).
